Results taken from patent publication US20250084061A1, “SULFONYL FUNCTIONAL COMPOUND, METHODS AND USES THEREOF” (Hubei Biopesticide Engineering Research Centre, priority 2023, published 2025).

Columns and labels:
Format in all cases: in vivo
Heliothis armigera = assay: Insecticidal activity, artificial feed surface coating method; conditions: for mortality at 125 µg/mL / mortality at 250 µg/mL / mortality at 500 µg/mL: Helicoverpa armigera, read-out: Insecticidal activity (mortality rate grade) Heliothis armigera
Protocol: (§1) The insecticidal activity of sulfonyl functional compounds in the above embodiments were tested for agricultural biological functions, and the targets of insecticidal activity were Heliothis armigera, Plutella xylostella and Aphiscraccivora.
(§2) Using Heliothis armigera and Plutella xylostella as target, the insecticidal activities of sulfonyl functional compounds were tested by conventional artificial feed surface coating method. 300 microliters of artificial feed and 20 microliters of test solution were added to each well of the 24-well cell culture plate. The test solution was used in different concentrations and repeated twice (Rep1 and Rep2). The concentrations of the test solution were 500 mg/L, 250 mg/L and 125 mg/L, respectively.
(§3) The insecticidal activity of sulfonyl functional compounds against Aphiscraccivora was tested by the method of dipping. Mother liquors were prepared by the sulfonyl functional compounds provided in the above embodiments dissolved in ethanol, respectively. 500 mg/L, 250 mg/L or 125 mg/L test solution could be prepared by diluting the different mother liquors with a liquor that contained 0.1 mL/L of emulgator (Tween-80). Every test solution was tested twice (Rep1 and Rep2). A blank control was set up, and the activity results were compared with the blank control. The mortality rate of 0˜30%, 30˜50%, 50-70%, 70˜90%, or 90˜100% could be orderly set as 0, 3, 5, 7, or 9.

Plutella xylostella = assay: as above; conditions: for mortality at 125 µg/mL / mortality at 250 µg/mL / mortality at 500 µg/mL: Plutella xylostella, read-out: Insecticidal activity (mortality rate grade) Plutella xylostella
Protocol: as §1, §2, §3

Aphiscraccivora = assay: Insecticidal activity, dipping method
Protocol: as §1, §3

Compound: N#CCNC(=O)c1c[n+](CCCS(=O)(=O)O)ccc1C(F)(F)F [Compound I-1]
- mortality at 125 µg/mL (Heliothis armigera; 125 mg/L test solution): 0 to 30%
- mortality at 250 µg/mL (Heliothis armigera; 250 mg/L test solution): 0 to 30%
- mortality at 500 µg/mL (Heliothis armigera; 500 mg/L test solution): 30 to 50%
- mortality at 125 µg/mL (Plutella xylostella; 125 mg/L test solution): 0 to 30%
- mortality at 250 µg/mL (Plutella xylostella; 250 mg/L test solution): 0 to 30%
- mortality at 500 µg/mL (Plutella xylostella; 500 mg/L test solution): 50 to 70%
- Insecticidal activity (mortality rate grade) Aphiscraccivora (Aphiscraccivora; 125 mg/L test solution): 5 (50-70%)
- Insecticidal activity (mortality rate grade) Aphiscraccivora (Aphiscraccivora; 250 mg/L test solution): 7 (70˜90%)
- Insecticidal activity (mortality rate grade) Aphiscraccivora (Aphiscraccivora; 500 mg/L test solution): 9 (90˜100%)

Compound: N#CCNC(=O)c1c[n+](C/C=C/S(=O)(=O)O)ccc1C(F)(F)F [Compound I-2]
- mortality at 125 µg/mL (Heliothis armigera; 125 mg/L test solution): 0 to 30%
- mortality at 250 µg/mL (Heliothis armigera; 250 mg/L test solution): 30 to 50%
- mortality at 500 µg/mL (Heliothis armigera; 500 mg/L test solution): 50 to 70%
- mortality at 125 µg/mL (Plutella xylostella; 125 mg/L test solution): 0 to 30%
- mortality at 250 µg/mL (Plutella xylostella; 250 mg/L test solution): 30 to 50%
- mortality at 500 µg/mL (Plutella xylostella; 500 mg/L test solution): 50 to 70%
- Insecticidal activity (mortality rate grade) Aphiscraccivora (Aphiscraccivora; 125 mg/L test solution): 7 (70˜90%)
- Insecticidal activity (mortality rate grade) Aphiscraccivora (Aphiscraccivora; 250 mg/L test solution): 9 (90˜100%)
- Insecticidal activity (mortality rate grade) Aphiscraccivora (Aphiscraccivora; 500 mg/L test solution): 9 (90˜100%)

Compound: N#CCNC(=O)c1c[n+](CCCCS(=O)(=O)O)ccc1C(F)(F)F [Compound I-3]
- mortality at 125 µg/mL (Heliothis armigera; 125 mg/L test solution): 0 to 30%
- mortality at 250 µg/mL (Heliothis armigera; 250 mg/L test solution): 30 to 50%
- mortality at 500 µg/mL (Heliothis armigera; 500 mg/L test solution): 30 to 50%
- mortality at 125 µg/mL (Plutella xylostella; 125 mg/L test solution): 30 to 50%
- mortality at 250 µg/mL (Plutella xylostella; 250 mg/L test solution): 50 to 70%
- mortality at 500 µg/mL (Plutella xylostella; 500 mg/L test solution): 50 to 70%
- Insecticidal activity (mortality rate grade) Aphiscraccivora (Aphiscraccivora; 125 mg/L test solution): 7 (70˜90%)
- Insecticidal activity (mortality rate grade) Aphiscraccivora (Aphiscraccivora; 250 mg/L test solution): 7 (70˜90%)
- Insecticidal activity (mortality rate grade) Aphiscraccivora (Aphiscraccivora; 500 mg/L test solution): 9 (90˜100%)

Compound: O=C(NCCc1ccc(OC(F)(F)F)cc1)c1c[n+](CCCS(=O)(=O)O)ccc1C(F)(F)F [Compound I-4]
- mortality at 125 µg/mL (Heliothis armigera; 125 mg/L test solution): 0 to 30%
- mortality at 250 µg/mL (Heliothis armigera; 250 mg/L test solution): 30 to 50%
- mortality at 500 µg/mL (Heliothis armigera; 500 mg/L test solution): 30 to 50%
- mortality at 125 µg/mL (Plutella xylostella; 125 mg/L test solution): 0 to 30%
- mortality at 250 µg/mL (Plutella xylostella; 250 mg/L test solution): 30 to 50%
- mortality at 500 µg/mL (Plutella xylostella; 500 mg/L test solution): 50 to 70%
- Insecticidal activity (mortality rate grade) Aphiscraccivora (Aphiscraccivora; 125 mg/L test solution): 3 (30˜50%)
- Insecticidal activity (mortality rate grade) Aphiscraccivora (Aphiscraccivora; 250 mg/L test solution): 5 (50-70%)
- Insecticidal activity (mortality rate grade) Aphiscraccivora (Aphiscraccivora; 500 mg/L test solution): 7 (70˜90%)

Compound: O=C(NCCc1ccc(OC(F)(F)F)cc1)c1c[n+](C/C=C/S(=O)(=O)O)ccc1C(F)(F)F [Compound I-5]
- mortality at 125 µg/mL (Heliothis armigera; 125 mg/L test solution): 0 to 30%
- mortality at 250 µg/mL (Heliothis armigera; 250 mg/L test solution): 0 to 30%
- mortality at 500 µg/mL (Heliothis armigera; 500 mg/L test solution): 30 to 50%
- mortality at 125 µg/mL (Plutella xylostella; 125 mg/L test solution): 30 to 50%
- mortality at 250 µg/mL (Plutella xylostella; 250 mg/L test solution): 50 to 70%
- mortality at 500 µg/mL (Plutella xylostella; 500 mg/L test solution): 50 to 70%
- Insecticidal activity (mortality rate grade) Aphiscraccivora (Aphiscraccivora; 125 mg/L test solution): 3 (30˜50%)
- Insecticidal activity (mortality rate grade) Aphiscraccivora (Aphiscraccivora; 250 mg/L test solution): 3 (30˜50%)
- Insecticidal activity (mortality rate grade) Aphiscraccivora (Aphiscraccivora; 500 mg/L test solution): 7 (70˜90%)

Compound: O=C(NCCc1ccc(OC(F)(F)F)cc1)c1c[n+](CCCCS(=O)(=O)O)ccc1C(F)(F)F [Compound I-6]
- mortality at 125 µg/mL (Heliothis armigera; 125 mg/L test solution): 0 to 30%
- mortality at 250 µg/mL (Heliothis armigera; 250 mg/L test solution): 0 to 30%
- mortality at 500 µg/mL (Heliothis armigera; 500 mg/L test solution): 30 to 50%
- mortality at 125 µg/mL (Plutella xylostella; 125 mg/L test solution): 0 to 30%
- mortality at 250 µg/mL (Plutella xylostella; 250 mg/L test solution): 30 to 50%
- mortality at 500 µg/mL (Plutella xylostella; 500 mg/L test solution): 50 to 70%
- Insecticidal activity (mortality rate grade) Aphiscraccivora (Aphiscraccivora; 125 mg/L test solution): 5 (50-70%)
- Insecticidal activity (mortality rate grade) Aphiscraccivora (Aphiscraccivora; 250 mg/L test solution): 7 (70˜90%)
- Insecticidal activity (mortality rate grade) Aphiscraccivora (Aphiscraccivora; 500 mg/L test solution): 7 (70˜90%)

Compound: CC1=NNC(=O)N(N=Cc2ccc[n+](CCCS(=O)(=O)[O-])c2)C1 [IV-1]
- Insecticidal activity (mortality rate grade) Heliothis armigera (Heliothis armigera; 125 mg/L test solution): 0 (mortality rate of 0˜30%)
- Insecticidal activity (mortality rate grade) Heliothis armigera (Heliothis armigera; 250 mg/L test solution): 3 (30˜50%)
- Insecticidal activity (mortality rate grade) Heliothis armigera (Heliothis armigera; 500 mg/L test solution): 3 (30˜50%)
- Insecticidal activity (mortality rate grade) Plutella xylostella (Plutella xylostella; 125 mg/L test solution): 3 (30˜50%)
- Insecticidal activity (mortality rate grade) Plutella xylostella (Plutella xylostella; 250 mg/L test solution): 3 (30˜50%)
- Insecticidal activity (mortality rate grade) Plutella xylostella (Plutella xylostella; 500 mg/L test solution): 5 (50-70%)
- Insecticidal activity (mortality rate grade) Aphiscraccivora (Aphiscraccivora; 125 mg/L test solution): 9 (90˜100%)
- Insecticidal activity (mortality rate grade) Aphiscraccivora (Aphiscraccivora; 250 mg/L test solution): 9 (90˜100%)
- Insecticidal activity (mortality rate grade) Aphiscraccivora (Aphiscraccivora; 500 mg/L test solution): 9 (90˜100%)

Compound: CC1=NNC(=O)N(N=Cc2ccc[n+](CC=CS(=O)(=O)[O-])c2)C1 [IV-2]
- Insecticidal activity (mortality rate grade) Heliothis armigera (Heliothis armigera; 125 mg/L test solution): 0 (mortality rate of 0˜30%)
- Insecticidal activity (mortality rate grade) Heliothis armigera (Heliothis armigera; 250 mg/L test solution): 0 (mortality rate of 0˜30%)
- Insecticidal activity (mortality rate grade) Heliothis armigera (Heliothis armigera; 500 mg/L test solution): 0 (mortality rate of 0˜30%)
- Insecticidal activity (mortality rate grade) Plutella xylostella (Plutella xylostella; 125 mg/L test solution): 0 (mortality rate of 0˜30%)
- Insecticidal activity (mortality rate grade) Plutella xylostella (Plutella xylostella; 250 mg/L test solution): 3 (30˜50%)
- Insecticidal activity (mortality rate grade) Plutella xylostella (Plutella xylostella; 500 mg/L test solution): 5 (50-70%)
- Insecticidal activity (mortality rate grade) Aphiscraccivora (Aphiscraccivora; 125 mg/L test solution): 7 (70˜90%)
- Insecticidal activity (mortality rate grade) Aphiscraccivora (Aphiscraccivora; 250 mg/L test solution): 9 (90˜100%)
- Insecticidal activity (mortality rate grade) Aphiscraccivora (Aphiscraccivora; 500 mg/L test solution): 9 (90˜100%)

Compound: CC1=NNC(=O)N(N=Cc2ccc[n+](CCCCS(=O)(=O)[O-])c2)C1 [IV-3]
- Insecticidal activity (mortality rate grade) Heliothis armigera (Heliothis armigera; 125 mg/L test solution): 0 (mortality rate of 0˜30%)
- Insecticidal activity (mortality rate grade) Heliothis armigera (Heliothis armigera; 250 mg/L test solution): 0 (mortality rate of 0˜30%)
- Insecticidal activity (mortality rate grade) Heliothis armigera (Heliothis armigera; 500 mg/L test solution): 3 (30˜50%)
- Insecticidal activity (mortality rate grade) Plutella xylostella (Plutella xylostella; 125 mg/L test solution): 0 (mortality rate of 0˜30%)
- Insecticidal activity (mortality rate grade) Plutella xylostella (Plutella xylostella; 250 mg/L test solution): 3 (30˜50%)
- Insecticidal activity (mortality rate grade) Plutella xylostella (Plutella xylostella; 500 mg/L test solution): 3 (30˜50%)
- Insecticidal activity (mortality rate grade) Aphiscraccivora (Aphiscraccivora; 125 mg/L test solution): 9 (90˜100%)
- Insecticidal activity (mortality rate grade) Aphiscraccivora (Aphiscraccivora; 250 mg/L test solution): 9 (90˜100%)
- Insecticidal activity (mortality rate grade) Aphiscraccivora (Aphiscraccivora; 500 mg/L test solution): 9 (90˜100%)

Compound: CC(=O)N1N=C(C)CN(N=Cc2ccc[n+](CCCS(=O)(=O)[O-])c2)C1=O [IV-4]
- Insecticidal activity (mortality rate grade) Heliothis armigera (Heliothis armigera; 125 mg/L test solution): 0 (mortality rate of 0˜30%)
- Insecticidal activity (mortality rate grade) Heliothis armigera (Heliothis armigera; 250 mg/L test solution): 3 (30˜50%)
- Insecticidal activity (mortality rate grade) Heliothis armigera (Heliothis armigera; 500 mg/L test solution): 5 (50-70%)
- Insecticidal activity (mortality rate grade) Plutella xylostella (Plutella xylostella; 125 mg/L test solution): 3 (30˜50%)
- Insecticidal activity (mortality rate grade) Plutella xylostella (Plutella xylostella; 250 mg/L test solution): 5 (50-70%)
- Insecticidal activity (mortality rate grade) Plutella xylostella (Plutella xylostella; 500 mg/L test solution): 5 (50-70%)
- Insecticidal activity (mortality rate grade) Aphiscraccivora (Aphiscraccivora; 125 mg/L test solution): 9 (90˜100%)
- Insecticidal activity (mortality rate grade) Aphiscraccivora (Aphiscraccivora; 250 mg/L test solution): 9 (90˜100%)
- Insecticidal activity (mortality rate grade) Aphiscraccivora (Aphiscraccivora; 500 mg/L test solution): 9 (90˜100%)

Compound: CCC(=O)N1N=C(C)CN(N=Cc2ccc[n+](CCCS(=O)(=O)[O-])c2)C1=O [IV-5]
- Insecticidal activity (mortality rate grade) Heliothis armigera (Heliothis armigera; 125 mg/L test solution): 0 (mortality rate of 0˜30%)
- Insecticidal activity (mortality rate grade) Heliothis armigera (Heliothis armigera; 250 mg/L test solution): 0 (mortality rate of 0˜30%)
- Insecticidal activity (mortality rate grade) Heliothis armigera (Heliothis armigera; 500 mg/L test solution): 0 (mortality rate of 0˜30%)
- Insecticidal activity (mortality rate grade) Plutella xylostella (Plutella xylostella; 125 mg/L test solution): 0 (mortality rate of 0˜30%)
- Insecticidal activity (mortality rate grade) Plutella xylostella (Plutella xylostella; 250 mg/L test solution): 0 (mortality rate of 0˜30%)
- Insecticidal activity (mortality rate grade) Plutella xylostella (Plutella xylostella; 500 mg/L test solution): 3 (30˜50%)
- Insecticidal activity (mortality rate grade) Aphiscraccivora (Aphiscraccivora; 125 mg/L test solution): 7 (70˜90%)
- Insecticidal activity (mortality rate grade) Aphiscraccivora (Aphiscraccivora; 250 mg/L test solution): 7 (70˜90%)
- Insecticidal activity (mortality rate grade) Aphiscraccivora (Aphiscraccivora; 500 mg/L test solution): 9 (90˜100%)
